The record followed here is patent US12173007B2, “Imidazopyridazine IL-17 inhibitor compounds” (Janssen Pharmaceutica NV, priority 2021, dated 2024).

For assay [1], the target named is T1, IL-17A(FLAG-Tagged): IL-17RA(His-Tagged) binding (Homo sapiens, UniProt Q16552, K93Q). In words: IL-17A(FLAG-tagged):IL-17RA(His-tagged) binding disruption Eu-HTRF assay, Protocol 1. The conditions noted are these: FLAG-IL-17A 2.5 nM; average if tested more than once. From the text:
IL-17A(FLAG-Tagged): IL-17RA(His-Tagged) Binding Disruption Eu-HTRF Assay
An antibody directed against the FLAG tag of IL-17A (SEQ ID NO: 1) is labeled with the HTRF donor chromophore (Europium-cryptate). IL-17A is present as a dimer that is “locked into” this quaternary structure due to the formation of loop-spanning […] disulfide bridges. The construct of IL-17RA used in the assay excludes the […] portion of the receptor and is fused to a C-terminal 10×His tag (SEQ ID NO:2). An antibody directed against the His tag of the IL-17RA chimera is labeled with the HTRF acceptor chromophore (“D2”). The fluorescence-resonance energy transfer (FRET) depends on the vicinity of the donor chromophore to the acceptor, and interruption of the binding between the IL-17A and IL-17RA causes the reduction/loss of FRET. Therefore, this assay allows to evaluate the compound effect on the binding IL-17A and IL-17RA by monitoring the fluorescence intensity of donor vs acceptor. The assay was run using either Protocol 1 or Protocol 2 as described below.
Protocol 1. 40 nl of 2-fold serial diluted compound solution for total 22 dilution points is added into each well of a 1536-well, white, low-volume, non-binding plate (Greiner #782904), then 2 μl of FLAG tagged IL-17A at 2×final concentration (2.5 nM) in solution of PBS+0.01% Triton-X100 is added to each well. The assay plate is briefly centrifuged then incubated for 1 h at rt. A mixed solution is prepared containing 2×5 nM 10HIS×IL-17RA, 2×2.5 nM Eu-anti-FLAG (CISBIO), 2×5 nM D2-anti-HIS (CISBIO) in PBS+0.01% Triton-X100+200 mM Potassium Fluoride (Sigma 60238) and 2 μl of mix is added to each well of the assay plate. The plate is briefly centrifuged then incubated for 2 h at rt. The HTRF intensities at the wavelength of donor (620 nm) and acceptor (665 nm) are measured using BMG Pherastar. The ratio between intensities at two wavelengths is calculated and plotted against the compound concentration and the data is fitted to a one-site competition model to yield IC50 of the compound.

Assay [2] has as its system IL-17A-induced G-CSF production in human normal keratinocyte (NHK). In words: NHK assay: IL-17A-induced G-CSF production in normal human keratinocytes. The conditions noted are these: 24 h, IL-17A 5 ng/mL, G-CSF by HTRF, average if tested more than once. Type of assay: cell-based. The method in brief:
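Compound titrations are first mixed with recombinant human IL-17A for 1 h at room temperature. The mixture goes onto adult normal human keratinocytes (final IL-17A 5 ng/mL, 5% FBS, 0.2% DMSO) for 24 h at 37 °C. Secreted G-CSF is then measured by HTRF and IC50 fitted.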
On the technique in general: TR-FRET usually uses a lanthanide donor and a delayed reading to cut background.

For assay [3], the target named is T1, IL-17A(FLAG-Tagged): IL-17RA(His-Tagged) binding. The assay is described as follows: IL-17A(FLAG-tagged):IL-17RA(His-tagged) binding disruption Eu-HTRF assay, Protocol 2. The conditions noted are these: FLAG-IL-17A 1 nM; average if tested more than once. The method in brief:
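FLAG-tagged IL-17A (1 nM final) was preincubated with compound (2-fold serial dilutions, 22 points) for 1 h at rt in PBS + 0.01% Triton X-100. 10×His-IL-17RA, Eu-anti-FLAG and D2-anti-His in buffer containing KF were then added for 2 h at rt. IC50 came from the 665/615 nm HTRF ratio fitted to a one-site competition model.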

T1 sequence (Q16552 with tags, fused parts or gaps K93Q): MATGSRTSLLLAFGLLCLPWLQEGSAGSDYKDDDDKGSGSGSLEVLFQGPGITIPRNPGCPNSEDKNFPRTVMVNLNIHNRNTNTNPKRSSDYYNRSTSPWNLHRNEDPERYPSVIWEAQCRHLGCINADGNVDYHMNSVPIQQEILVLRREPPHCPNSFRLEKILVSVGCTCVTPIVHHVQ

A word on the IC50: it is the concentration that gives 50% inhibition. Lower therefore signals inhibition by little substance. For the compound `O=C(N[C@H](c1cn2ncc(CN3CC(F)(F)CNC3=O)cc2n1)C1CCC(F)(F)CC1)c1nonc1C1CC1` [Example 20, (S)-4-Cyclopropyl-N-((7-((5,5-difluoro-2-oxotetrahydropyrimidin-1(2H)-yl)methyl)imidazo[1,2-b]pyridazin-2-yl)(4,4-difluorocyclohexyl)methyl)-1,2,5-oxadiazole-3-carboxamide], the IC50 is below 50 nM in assay [1] and below 50 nM in assay [2] (Homo sapiens, Keratinocyte).

For the compound `CC(c1cnn2cc([C@@H](NC(=O)c3nonc3C3CC3)C3CCC(F)(F)CC3)nc2c1)N1CC(F)(F)CNC1=O` (single isomer, unassigned) [Example 92, 4-Cyclopropyl-N—((S)-(7-((S*)-1-(5,5-difluoro-2-oxotetrahydropyrimidin-1(2H)-yl)ethyl)imidazo[1,2-b]pyridazin-2-yl)(4,4-difluorocyclohexyl)methyl)-1,2,5-oxadiazole-3-carboxamide], the IC50 was above 100 nM in assay [1] and above 100 nM in assay [2] (Homo sapiens, Keratinocyte).

As to `CC(C)n1ncnc1C(=O)N[C@H](c1cn2ncc(CN3CC(F)(F)CNC3=O)cc2n1)C1CCC(F)(F)CC1` [Example 23, (S)—N-((7-((5,5-Difluoro-2-oxotetrahydropyrimidin-1(2H)-yl)methyl)imidazo[1,2-b]pyridazin-2-yl)(4,4-difluorocyclohexyl)methyl)-1-isopropyl-1H-1,2,4-triazole-5-carboxamide], the IC50 in assay [1] is above 100 nM; in assay [2] (Homo sapiens, Keratinocyte), above 100 nM.

On to `CC(C)n1nccc1C(=O)N[C@H](c1cn2ncc(CN3CCCNC3=O)cc2n1)C1CCC(F)(F)CC1` [Example 19, (S)—N-((4,4-Difluorocyclohexyl)(7-((2-oxotetrahydropyrimidin-1(2H)-yl)methyl)imidazo[1,2-b]pyridazin-2-yl)methyl)-1-isopropyl-1H-pyrazole-5-carboxamide], for which the IC50 is above 100 nM in assay [1] and above 100 nM in assay [2] (Homo sapiens, Keratinocyte).

`Cc1nonc1C(=O)N[C@H](c1cn2ncc([C@@H](C3CC3)N3CC(F)(F)CNC3=O)cc2n1)C1CCC(F)(F)CC1` [Example 8, N—((S)-(7-((R)-Cyclopropyl(5,5-difluoro-2-oxotetrahydropyrimidin-1(2H)-yl)methyl)imidazo[1,2-b]pyridazin-2-yl)(4,4-difluorocyclohexyl)methyl)-4-methyl-1,2,5-oxadiazole-3-carboxamide]: the IC50 in assay [1] was below 50 nM; in assay [2] (Homo sapiens, Keratinocyte), 50 to 100 nM.

Regarding `O=C(N[C@H](c1cn2ncc(CN3CC(F)(F)CNC3=O)cc2n1)C1CCC(F)(F)CC1)c1conc1COC(F)F` [Example 22, (S)—N-((7-((5,5-Difluoro-2-oxotetrahydropyrimidin-1(2H)-yl)methyl)imidazo[1,2-b]pyridazin-2-yl)(4,4-difluorocyclohexyl)methyl)-3-((difluoromethoxy)methyl)isoxazole-4-carboxamide], the IC50 was 50 to 100 nM in assay [1] and 50 to 100 nM in assay [2] (Homo sapiens, Keratinocyte).

Regarding `O=C(N[C@H](c1cn2ncc(CN3CC(C(F)(F)F)CNC3=O)cc2n1)C1CCC(F)(F)CC1)c1nonc1C1CC1` (single isomer, unassigned) [Example 6, 4-Cyclopropyl-N—((S)-(4,4-difluorocyclohexyl)(7-(((R*)-2-oxo-5-(trifluoromethyl)tetrahydropyrimidin-1(2H)-yl)methyl)imidazo[1,2-b]pyridazin-2-yl)methyl)-1,2,5-oxadiazole-3-carboxamide], the IC50 in assay [1] was above 100 nM; in assay [2] (Homo sapiens, Keratinocyte), above 100 nM.

As to `O=C(N[C@H](c1cn2ncc([C@@H](COC3CC3)N3CC(F)(F)CNC3=O)cc2n1)C1CCC(F)(F)CC1)c1nonc1C(F)F` [Example 78, N—((S)-(7-((S)-2-Cyclopropoxy-1-(5,5-difluoro-2-oxotetrahydropyrimidin-1(2H)-yl)ethyl)imidazo[1,2-b]pyridazin-2-yl)(4,4-difluorocyclohexyl)methyl)-4-(difluoromethyl)-1,2,5-oxadiazole-3-carboxamide], the IC50 is below 50 nM in assay [3] and below 50 nM in assay [2] (Homo sapiens, Keratinocyte).

For `[2H]C1([2H])NC(=O)N([C@H](COC2CC2)c2cnn3cc([C@H](CCC(C)(C)C(F)(F)F)NC(=O)c4nonc4OC)nc3c2)C([2H])([2H])C1(F)F` [Example 75, N—((S)-1-(7-((S)-2-Cyclopropoxy-1-(5,5-difluoro-2-oxotetrahydropyrimidin-1(2H)-yl-4,4,6,6-d4)ethyl)imidazo[1,2-b]pyridazin-2-yl)-5,5,5-trifluoro-4,4-dimethylpentyl)-4-methoxy-1,2,5-oxadiazole-3-carboxamide], the IC50 was below 50 nM in assay [3] and below 50 nM in assay [2] (Homo sapiens, Keratinocyte).

`Cc1nonc1C(=O)N[C@@H](CCC(C)(C)C(F)(F)F)c1cn2ncc([C@@H](COC3CC3)N3CC(F)(F)CNC3=O)cc2n1` [Example 56, N—((S)-1-(7-((S)-2-Cyclopropoxy-1-(5,5-difluoro-2-oxotetrahydropyrimidin-1(2H)-yl)ethyl)imidazo[1,2-b]pyridazin-2-yl)-5,5,5-trifluoro-4,4-dimethylpentyl)-4-methyl-1,2,5-oxadiazole-3-carboxamide]: the IC50 was below 50 nM in assay [3] and below 50 nM in assay [2] (Homo sapiens, Keratinocyte).

For `COC[C@H](c1cnn2cc([C@@H](NC(=O)c3nonc3OC)C3CCC(F)(F)CC3)nc2c1)N1CC(F)(F)C(F)(F)CNC1=O` [Example 124, N—((S)-(4,4-Difluorocyclohexyl)(7-((S)-2-methoxy-1-(5,5,6,6-tetrafluoro-2-oxo-1,3-diazepan-1-yl)ethyl)imidazo[1,2-b]pyridazin-2-yl)methyl)-4-methoxy-1,2,5-oxadiazole-3-carboxamide], the IC50 in assay [3] was below 50 nM; in assay [2] (Homo sapiens, Keratinocyte) it was 50 to 100 nM.

Take `Cc1nonc1C(=O)N[C@H](c1cn2ncc(C(C3CCOCC3)N3CC(F)(F)CNC3=O)cc2n1)C1CCC(F)(F)CC1` (single isomer, unassigned) [Example 59, N—((S)-(7-((R*)-(5,5-Difluoro-2-oxotetrahydropyrimidin-1(2H)-yl)(tetrahydro-2H-pyran-4-yl)methyl)imidazo[1,2-b]pyridazin-2-yl)(4,4-difluorocyclohexyl)methyl)-4-methyl-1,2,5-oxadiazole-3-carboxamide]: the IC50 in assay [3] was below 50 nM; in assay [2] (Homo sapiens, Keratinocyte) it was below 50 nM.

`COC[C@H](c1cnn2cc([C@@H](NC(=O)c3nonc3C3CC3)[C@@H](C)OC3CC3)nc2c1)N1CC(F)(F)CNC1=O` (relative stereo) [Example 54, N-((1R*,2R*)-2-Cyclopropoxy-1-(7-((S)-1-(5,5-difluoro-2-oxotetrahydropyrimidin-1(2H)-yl)-2-methoxyethyl)imidazo[1,2-b]pyridazin-2-yl)propyl)-4-cyclopropyl-1,2,5-oxadiazole-3-carboxamide]: the IC50 was below 50 nM in assay [3] and 50 to 100 nM in assay [2] (Homo sapiens, Keratinocyte).

Consider `COC[C@H](c1cnn2cc([C@@H](NC(=O)c3nonc3C3CC3(F)F)C3CCC(F)(F)CC3)nc2c1)N1CC(F)(F)CNC1=O` (single isomer, unassigned) [Example 129, N—((S)-(7-((S)-1-(5,5-Difluoro-2-oxotetrahydropyrimidin-1(2H)-yl)-2-methoxyethyl)imidazo[1,2-b]pyridazin-2-yl)(4,4-difluorocyclohexyl)methyl)-4-((S*)-2,2-difluorocyclopropyl)-1,2,5-oxadiazole-3-carboxamide], for which the IC50 in assay [3] and in assay [2] was below 50 nM throughout.

Consider `CC(C)(CC[C@H](NC(=O)c1nonc1C1CC1)c1cn2ncc(CN3C[C@@H]4[C@H](CNC3=O)C4(F)F)cc2n1)C(F)(F)F` (relative stereo) [Example 118, 4-Cyclopropyl-N—((S)-1-(7-(((1S*,7R*)-8,8-difluoro-4-oxo-3,5-diazabicyclo[5.1.0]octan-3-yl)methyl)imidazo[1,2-b]pyridazin-2-yl)-5,5,5-trifluoro-4,4-dimethylpentyl)-1,2,5-oxadiazole-3-carboxamide], for which the IC50 in assay [3] is below 50 nM; in assay [2] (Homo sapiens, Keratinocyte), above 100 nM.
